This is an account of results in ChEMBL document CHEMBL1201862, “PubChem BioAssay data set” (2004).

Activity calls are given as the source filed them.

Usually IC50 stands for the concentration needed to halve the response being measured. The term EC50 denotes the concentration at which the effect is half-maximal.

Assay type in all cases: functional
In experiment [1] the target is T1, G-protein coupled receptor 55 (Homo sapiens, UniProt Q9Y2T6). Nature of the experiment: inhibition of LPI-stimulated GPR55 beta-arrestin translocation – imaging, U2OS, beta-arrestin-GFP, LPI agonist, primary screen (AID 2013).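 Also: antagonist potency measured as reduced agonist-driven arrestin aggregation.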
T1 sequence (Q9Y2T6 whole entry): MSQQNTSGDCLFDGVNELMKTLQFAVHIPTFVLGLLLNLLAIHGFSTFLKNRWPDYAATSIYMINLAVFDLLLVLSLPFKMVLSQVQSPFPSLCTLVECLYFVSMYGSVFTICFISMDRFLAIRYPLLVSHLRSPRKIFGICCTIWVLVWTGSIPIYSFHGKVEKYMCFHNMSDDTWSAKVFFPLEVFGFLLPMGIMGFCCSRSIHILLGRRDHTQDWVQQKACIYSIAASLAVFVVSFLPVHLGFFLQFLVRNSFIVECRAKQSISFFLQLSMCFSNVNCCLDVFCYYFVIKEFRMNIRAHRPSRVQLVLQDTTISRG
The target of experiment [2] is T2, Cannabinoid receptor 2 (Homo sapiens, UniProt P34972). Description: SAR analysis of agonists of the Cannabinoid Receptor 2 using an Image-Based Assay. [Related pubchem assays (depositor defined):AID2013, AID2026].
T2 sequence (P34972 whole entry): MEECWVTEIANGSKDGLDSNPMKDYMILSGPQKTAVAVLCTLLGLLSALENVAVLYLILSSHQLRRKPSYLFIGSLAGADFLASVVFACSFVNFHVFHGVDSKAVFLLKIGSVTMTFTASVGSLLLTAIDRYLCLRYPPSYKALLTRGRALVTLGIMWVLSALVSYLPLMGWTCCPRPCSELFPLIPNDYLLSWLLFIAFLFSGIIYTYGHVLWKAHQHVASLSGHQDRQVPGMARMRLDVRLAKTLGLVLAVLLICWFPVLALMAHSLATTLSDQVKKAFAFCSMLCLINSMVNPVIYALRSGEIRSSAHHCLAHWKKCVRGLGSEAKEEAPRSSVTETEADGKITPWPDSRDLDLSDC
Experiment [3] addresses T2, Cannabinoid receptor 2. Nature of the experiment: SAR analysis of antagonists of the Cannabinoid Receptor 2 using an Image-Based Assay. [Related pubchem assays (depositor defined):AID2013, AID2026].
Experiment [4] addresses T1, G-protein coupled receptor 55. Nature of the experiment: blockade of LPI-induced GPR55 arrestin translocation – imaging, U2OS, beta-arrestin-GFP, LPI agonist, set 2, SAR follow-up (AID 2820).
The target of experiment [5] is T3, G-protein coupled receptor 35 (Homo sapiens, UniProt Q9HC97). Nature of the experiment: SAR analysis of Agonists of the GPR35 Receptor using an Image-Based Assay - Set 2. [Related pubchem assays (depositor defined):AID2013, AID2026].
T3 sequence (Q9HC97 whole entry): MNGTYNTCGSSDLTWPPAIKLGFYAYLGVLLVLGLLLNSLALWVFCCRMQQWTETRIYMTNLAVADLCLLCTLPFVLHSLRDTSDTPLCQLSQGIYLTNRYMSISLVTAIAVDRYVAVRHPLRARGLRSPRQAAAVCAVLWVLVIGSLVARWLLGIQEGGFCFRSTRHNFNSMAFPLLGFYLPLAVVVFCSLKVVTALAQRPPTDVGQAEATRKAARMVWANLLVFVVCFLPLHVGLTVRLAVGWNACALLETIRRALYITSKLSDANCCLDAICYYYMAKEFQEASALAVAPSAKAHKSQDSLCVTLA
Experiment [6] addresses T4, Cannabinoid receptor 1 (Homo sapiens, UniProt P21554). Description: SAR analysis of agonists of the Cannabinoid Receptor 1 using an Image-Based Assay - Set 2. [Related pubchem assays (depositor defined):AID2013, AID2026].
Experiment [7] concerns the target T4, Cannabinoid receptor 1. Nature of the experiment: SAR analysis of antagonists of the Cannabinoid Receptor 1 using an Image-Based Assay - Set 2. [Related pubchem assays (depositor defined):AID2013, AID2026].
In experiment [8] the target is T3, G-protein coupled receptor 35. Nature of the experiment: SAR analysis of Antagonists of the GPR35 Receptor using an Image-Based Assay - Set 3. [Related pubchem assays (depositor defined):AID2013, AID2026].

T4 sequence (P21554 whole entry): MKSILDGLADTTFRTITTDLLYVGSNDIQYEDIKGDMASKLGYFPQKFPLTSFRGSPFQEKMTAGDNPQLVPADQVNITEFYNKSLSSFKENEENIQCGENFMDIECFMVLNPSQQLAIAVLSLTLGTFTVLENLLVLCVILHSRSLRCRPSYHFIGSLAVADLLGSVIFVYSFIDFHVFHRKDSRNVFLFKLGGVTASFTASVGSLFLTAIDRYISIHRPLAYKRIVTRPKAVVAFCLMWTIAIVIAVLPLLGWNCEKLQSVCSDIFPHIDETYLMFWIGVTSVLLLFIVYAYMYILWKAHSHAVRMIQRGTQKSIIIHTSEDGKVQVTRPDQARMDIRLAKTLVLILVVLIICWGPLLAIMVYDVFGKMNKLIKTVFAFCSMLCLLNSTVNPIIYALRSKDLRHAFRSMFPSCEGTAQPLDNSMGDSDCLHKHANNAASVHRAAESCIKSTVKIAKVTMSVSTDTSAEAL

As for `O=C(N1CCC(n2nc(-c3ccccc3)oc2=O)CC1)C1(c2ccc(Cl)cc2)CC1`, the IC50 is 0.68 µM (active) in experiment [1]; > 32 µM (inactive) on Cannabinoid receptor 2 [3]; 0.76 µM (active) in experiment [4]; 9.6 µM (active) at Cannabinoid receptor 1 [7]; > 32 µM (inactive) in experiment [8]. In addition, the EC50 (at Cannabinoid receptor 2 [2]; in experiment [5]; on Cannabinoid receptor 1 [6]) was > 32 µM (inactive) in each case.
